# According to patent US10730858B2, “Lactam, cyclic urea and carbamate, and triazolone derivatives as potent and selective rock inhibitors” (BRISTOL-MYERS SQUIBB COMPANY, priority 2016, dated 2020):
# Target: ROCK2 (Homo sapiens, UniProt O75116)
# Experiment: ROCK2 assay (Caliper LABCHIP peptide phosphorylation, kinase inhibition)
# Assay type: biochemical
# Conditions: 5 μM ATP, 1.5 μM peptide substrate
# Experimental: The effectiveness of compounds of the present invention as ROCK inhibitors can be determined in a 30 μL assay containing 20 mM HEPES, pH 7.5, 20 mM MgCl2, 0.015% Brij-35, 4 mM DTT, 5 μM ATP and 1.5 μM peptide substrate (FITC-AHA-AKRRRLSSLRA-OH) (SEQ ID NO. 1). Compounds were dissolved in DMSO so that the final concentration of DMSO was <2%, and the reaction was initiated with Rho kinase variants. After incubation, the reaction was terminated by the addition of EDTA and the phosphorylated and non-phosphorylated peptides separated using a LABCHIP® 3000 Reader (Caliper Life Sciences). […] Compounds were tested in dose-response format, and the inhibition of kinase activity was calculated at each concentration of compound. The inhibition data were fit using a curve-fitting program to determine the IC50; i.e., the concentration of compound required to inhibit 50% of kinase activity.
# Representative Examples were tested in the ROCK2 assay described above and found having ROCK2 inhibitory activity. The ranges of the ROCK2 IC50 values are as follows: ROCK2 IC50: ++++ (<10 nM) +++ (10-100 nM) ++ (100-500 nM) + (500-2000 nM)
# ROCK2, sequence (O75116 whole entry, species assumed): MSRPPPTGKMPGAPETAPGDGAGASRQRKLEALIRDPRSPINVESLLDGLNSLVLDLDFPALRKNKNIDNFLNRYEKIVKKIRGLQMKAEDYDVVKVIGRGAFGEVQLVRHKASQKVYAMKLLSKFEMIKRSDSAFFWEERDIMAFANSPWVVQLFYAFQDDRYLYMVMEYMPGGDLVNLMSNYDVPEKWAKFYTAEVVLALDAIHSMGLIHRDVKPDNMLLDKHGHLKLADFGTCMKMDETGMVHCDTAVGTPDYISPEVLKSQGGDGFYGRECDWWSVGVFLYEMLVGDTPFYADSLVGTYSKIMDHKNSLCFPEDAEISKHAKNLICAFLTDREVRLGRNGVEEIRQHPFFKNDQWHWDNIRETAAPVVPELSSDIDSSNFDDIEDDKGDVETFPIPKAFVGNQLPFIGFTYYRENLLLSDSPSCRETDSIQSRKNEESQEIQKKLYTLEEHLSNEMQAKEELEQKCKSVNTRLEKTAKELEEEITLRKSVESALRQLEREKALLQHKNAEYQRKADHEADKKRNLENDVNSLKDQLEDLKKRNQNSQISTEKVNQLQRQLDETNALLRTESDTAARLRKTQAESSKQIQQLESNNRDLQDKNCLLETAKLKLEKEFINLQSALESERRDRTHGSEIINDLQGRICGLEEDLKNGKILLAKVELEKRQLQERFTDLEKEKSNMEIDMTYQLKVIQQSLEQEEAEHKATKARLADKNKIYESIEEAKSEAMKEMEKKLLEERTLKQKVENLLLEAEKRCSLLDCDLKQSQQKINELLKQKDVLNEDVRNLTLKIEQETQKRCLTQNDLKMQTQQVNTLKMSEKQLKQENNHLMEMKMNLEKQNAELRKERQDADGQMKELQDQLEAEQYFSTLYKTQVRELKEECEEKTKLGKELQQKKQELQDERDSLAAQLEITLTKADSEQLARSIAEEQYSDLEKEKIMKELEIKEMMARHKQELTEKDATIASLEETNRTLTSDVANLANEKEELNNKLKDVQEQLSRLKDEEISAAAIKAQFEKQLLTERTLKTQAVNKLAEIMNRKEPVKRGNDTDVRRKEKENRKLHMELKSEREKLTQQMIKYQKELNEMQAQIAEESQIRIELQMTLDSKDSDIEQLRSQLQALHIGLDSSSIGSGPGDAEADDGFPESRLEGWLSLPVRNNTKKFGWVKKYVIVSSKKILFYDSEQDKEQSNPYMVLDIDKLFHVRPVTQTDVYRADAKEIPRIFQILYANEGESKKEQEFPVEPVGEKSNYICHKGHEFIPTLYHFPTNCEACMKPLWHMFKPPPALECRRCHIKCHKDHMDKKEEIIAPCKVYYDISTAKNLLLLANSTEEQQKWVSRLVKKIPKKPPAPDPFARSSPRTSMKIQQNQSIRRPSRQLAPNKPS
row,IC50 [µM],Compound
1,0.01 to 0.1,"COc1cccc(NC2CCN(c3ccc(-c4n[nH]c(=O)c5ccccc45)cc3)C2=O)c1 (stereo not drawn) [Example 26, 4-(4-{3-[(3-methoxyphenyl)amino]-2-oxopyrrolidin-1-yl}phenyl)-1,2-dihydrophthalazin-1-one]"
2,0.01 to 0.1,"O=C1C(Nc2ccccc2)CCN1c1ccc(-c2n[nH]c(=O)c3ccccc23)cc1 (stereo not drawn) [Example 27, 4-{4-[2-oxo-3-(phenylamino)pyrrolidin-1-yl]phenyl}-1,2-dihydrophthalazin-1-one]"
3,0.01 to 0.1,"CCc1ccccc1NC1CCN(c2ccc(-c3n[nH]c(=O)c4ccccc34)cc2)C1=O (stereo not drawn) [Example 31, 4-(4-{3-[(2-ethylphenyl)amino]-2-oxopyrrolidin-1-yl}phenyl)-1,2-dihydrophthalazin-1-one]"
4,0.01 to 0.1,"COc1cc(F)cc(NC2CCN(c3ccc(-c4n[nH]c(=O)c5ccccc45)cc3)C2=O)c1 (stereo not drawn) [Example 32, 4-(4-{3-[(3-fluoro-5-methoxyphenyl)amino]-2-oxopyrrolidin-1-yl}phenyl)-1,2-dihydrophthalazin-1-one]"
5,0.01 to 0.1,"O=C1C(Nc2ccc3c(c2)OCO3)CCN1c1ccc(-c2n[nH]c(=O)c3ccccc23)cc1 (stereo not drawn) [Example 33, 4-(4-{3-[(2H-1,3-benzodioxol-5-yl)amino]-2-oxopyrrolidin-1-yl}phenyl)-1,2-dihydrophthalazin-1-one]"
6,0.01 to 0.1,"COc1ccc(F)c(NC2CCN(c3ccc(-c4n[nH]c(=O)c5ccccc45)cc3)C2=O)c1 (stereo not drawn) [Example 37, 4-(4-{3-[(2-fluoro-5-methoxyphenyl)amino]-2-oxopyrrolidin-1-yl}phenyl)-1,2-dihydrophthalazin-1-one]"
7,0.01 to 0.1,"COc1cc(C)cc(NC2CCN(c3ccc(-c4n[nH]c(=O)c5ccccc45)cc3)C2=O)c1 (stereo not drawn) [Example 38, 4-(4-{3-[(3-methoxy-5-methylphenyl)amino]-2-oxopyrrolidin-1-yl}phenyl)-1,2-dihydrophthalazin-1-one]"
8,0.01 to 0.1,"COc1c(F)ccc(NC2CCN(c3ccc(-c4n[nH]c(=O)c5ccccc45)cc3)C2=O)c1F (stereo not drawn) [Example 40, 4-(4-{3-[(2,4-difluoro-3-methoxyphenyl)amino]-2-oxopyrrolidin-1-yl}phenyl)-1,2-dihydrophthalazin-1-one]"
9,0.01 to 0.1,"COc1cc(NC2CCN(c3ccc(-c4n[nH]c(=O)c5ccccc45)cc3)C2=O)ccc1F (stereo not drawn) [Example 42, 4-(4-{3-[(4-fluoro-3-methoxyphenyl)amino]-2-oxopyrrolidin-1-yl}phenyl)-1,2-dihydrophthalazin-1-one]"
10,0.01 to 0.1,"CCOc1cccc(NC2CCN(c3ccc(-c4n[nH]c(=O)c5ccccc45)cc3)C2=O)c1 (stereo not drawn) [Example 43, 4-(4-{3-[(3-ethoxyphenyl)amino]-2-oxopyrrolidin-1-yl}phenyl)-1,2-dihydrophthalazin-1-one]"
11,0.5 to 2,"COc1cccc([C@@H](C)NC2CCN(c3ccc(-c4n[nH]c(=O)c5ccccc45)cc3)C2=O)c1 (stereo partly drawn) [Example 44, 4-[4-(3-{[(1R)-1-(3-methoxyphenyl)ethyl]amino}-2-oxopyrrolidin-1-yl)phenyl]-1,2-dihydrophthalazin-1-one]"

# Second part, the molecule before the results:
row,Compound,IC50 [µM]
1,"CC(C)(C)OC(=O)NCC1CN(c2ccc(-c3n[nH]c(=O)c4ccccc34)cc2)C(=O)O1 (stereo not drawn) [Example 16, tert-butyl N-({2-oxo-3-[4-(4-oxo-3,4-dihydrophthalazin-1-yl)phenyl]-1,3-oxazolidin-5-yl}methyl)carbamate]",0.5 to 2
2,"CCCC1CN(c2ccc(-c3n[nH]c(=O)c4ccccc34)cc2)C(=O)O1 (stereo not drawn) [Example 17, 4-[4-(2-oxo-5-propyl-1,3-oxazolidin-3-yl)phenyl]-1,2-dihydrophthalazin-1-one]",0.1 to 0.5
3,"O=C(NCC1CN(c2ccc(-c3n[nH]c(=O)c4ccccc34)cc2)C(=O)O1)c1ccccc1 (stereo not drawn) [Example 18, N-({2-oxo-3-[4-(4-oxo-3,4-dihydrophthalazin-1-yl)phenyl]-1,3-oxazolidin-5-yl}methyl)benzamide]",0.1 to 0.5
4,"O=C1OC(c2ccc(F)cc2)CN1c1ccc(-c2n[nH]c(=O)c3ccccc23)cc1 (stereo not drawn) [Example 19, 4-{4-[5-(4-fluorophenyl)-2-oxo-1,3-oxazolidin-3-yl]phenyl}-1,2-dihydrophthalazin-1-one]",0.5 to 2
5,"CS(=O)(=O)c1ccc(CC2CN(c3ccc(-c4n[nH]c(=O)c5ccccc45)cc3)C(=O)O2)cc1 (stereo not drawn) [Example 20, 4-(4-{5-[(4-methanesulfonylphenyl)methyl]-2-oxo-1,3-oxazolidin-3-yl}phenyl)-1,2-dihydrophthalazin-1-one]",0.1 to 0.5
6,"O=C1OC2CCCCC2N1c1ccc(-c2n[nH]c(=O)c3ccccc23)cc1 (stereo not drawn) [Example 21, 4-[4-(2-oxo-octahydro-1,3-benzoxazol-3-yl)phenyl]-1,2-dihydrophthalazin-1-one]",0.5 to 2
7,"O=C1OC(C(O)(c2ccccc2)C(F)(F)F)CN1c1ccc(-c2n[nH]c(=O)c3ccccc23)cc1 (stereo not drawn) [Example 22, 4-{4-[2-oxo-5-(2,2,2-trifluoro-1-hydroxy-1-phenylethyl)-1,3-oxazolidin-3-yl]phenyl}-1,2-dihydrophthalazin-1-one]",0.5 to 2
8,"C[C@@H]1OC(=O)N(c2ccc(-c3n[nH]c(=O)c4ccccc34)cc2)[C@@H]1c1ccccc1 [Example 23, 4-{4-[(4R,5S)-5-methyl-2-oxo-4-phenyl-1,3-oxazolidin-3-yl]phenyl}-1,2-dihydrophthalazin-1-one]",0.5 to 2
9,"O=C1C(N2CCOCC2)CCN1c1ccc(-c2n[nH]c(=O)c3ccccc23)cc1 (stereo not drawn) [Example 24, 4-{4-[3-(morpholin-4-yl)-2-oxopyrrolidin-1-yl]phenyl}-1,2-dihydrophthalazin-1-one]",0.5 to 2
10,"O=C1C(NCc2ccccc2)CCN1c1ccc(-c2n[nH]c(=O)c3ccccc23)cc1 (stereo not drawn) [Example 25, 4-{4-[3-(benzylamino)-2-oxopyrrolidin-1-yl]phenyl}-1,2-dihydrophthalazin-1-one]",0.5 to 2
11,"O=C1C(NC2CCCC2)CCN1c1ccc(-c2n[nH]c(=O)c3ccccc23)cc1 (stereo not drawn) [Example 28, 4-{4-[3-(cyclopentylamino)-2-oxopyrrolidin-1-yl]phenyl}-1,2-dihydrophthalazin-1-one]",0.5 to 2
12,"O=C1C(NC2Cc3ccccc3C2)CCN1c1ccc(-c2n[nH]c(=O)c3ccccc23)cc1 (stereo not drawn) [Example 29, 4-(4-{3-[(2,3-dihydro-1H-inden-2-yl)amino]-2-oxopyrrolidin-1-yl}phenyl)-1,2-dihydrophthalazin-1-one]",0.5 to 2
13,"O=C1C(Nc2ccc3c(c2)OCCCO3)CCN1c1ccc(-c2n[nH]c(=O)c3ccccc23)cc1 (stereo not drawn) [Example 34, 4-(4-{3-[(3,4-dihydro-2H-1,5-benzodioxepin-7-yl)amino]-2-oxopyrrolidin-1-yl}phenyl)-1,2-dihydrophthalazin-1-one]",0.01 to 0.1
14,"Cn1nc(C2CC2)cc1NC1CCN(c2ccc(-c3n[nH]c(=O)c4ccccc34)cc2)C1=O (stereo not drawn) [Example 35, 4-(4-{3-[(3-cyclopropyl-1-methyl-1H-pyrazol-5-yl)amino]-2-oxopyrrolidin-1-yl}phenyl)-1,2-dihydrophthalazin-1-one]",0.01 to 0.1
15,"Cc1[nH]nc(C2CC2)c1NC1CCN(c2ccc(-c3n[nH]c(=O)c4ccccc34)cc2)C1=O (stereo not drawn) [Example 36, 4-(4-{3-[(3-cyclopropyl-5-methyl-1H-pyrazol-4-yl)amino]-2-oxopyrrolidin-1-yl}phenyl)-1,2-dihydrophthalazin-1-one]",0.01 to 0.1
16,"O=C1C(Nc2cnn(-c3ccccc3)c2)CCN1c1ccc(-c2n[nH]c(=O)c3ccccc23)cc1 (stereo not drawn) [Example 39, 4-(4-{2-oxo-3-[(1-phenyl-1H-pyrazol-4-yl)amino]pyrrolidin-1-yl}phenyl)-1,2-dihydrophthalazin-1-one]",0.01 to 0.1
17,"O=c1[nH]nc(-c2ccc(-n3ncn(Cc4ccccc4)c3=O)cc2)c2ccccc12 [Example 41, 4-[4-(4-benzyl-5-oxo-4,5-dihydro-1H-1,2,4-triazol-1-yl)phenyl]-1,2-dihydrophthalazin-1-one]",0.1 to 0.5
18,"O=C1C(NCCc2ccccc2)CCN1c1ccc(-c2n[nH]c(=O)c3ccccc23)cc1 (stereo not drawn) [Example 45, 4-(4-{2-oxo-3-[(2-phenylethyl)amino]pyrrolidin-1-yl}phenyl)-1,2-dihydrophthalazin-1-one]",0.5 to 2
19,"COc1cccc(Cn2cnn(-c3ccc(-c4n[nH]c(=O)c5ccccc45)cc3)c2=O)c1 [Example 46, 4-(4-{4-[(3-methoxyphenyl)methyl]-5-oxo-4,5-dihydro-1H-1,2,4-triazol-1-yl}phenyl)-1,2-dihydrophthalazin-1-one]",0.1 to 0.5
20,"O=c1n(Cc2ccccc2)cnn1-c1ccc(-c2n[nH]c(=O)n3cccc23)cc1 [Example 47, 4-benzyl-1-(4-{4-oxo-3H,4H-pyrrolo[1,2-d][1,2,4]triazin-1-yl}phenyl)-4,5-dihydro-1H-1,2,4-triazol-5-one]",0.5 to 2
21,"COc1cc(NC2CCN(c3ccc(-c4n[nH]c(=O)c5ccccc45)cc3)C2=O)ccc1N1CCN(C)CC1 (stereo not drawn) [Example 48, 4-[4-(3-{[3-methoxy-4-(4-methylpiperazin-1-yl)phenyl]amino}-2-oxopyrrolidin-1-yl)phenyl]-1,2-dihydrophthalazin-1-one]",0.01 to 0.1
22,"COc1cc(NC2CCN(c3ccc(-c4n[nH]c(=O)c5ccccc45)cc3)C2=O)ccc1N1CCOCC1 (stereo not drawn) [Example 49, 4-[4-(3-{[3-methoxy-4-(morpholin-4-yl)phenyl]amino}-2-oxopyrrolidin-1-yl)phenyl]-1,2-dihydrophthalazin-1-one]",0.01 to 0.1
